These results are taken from US11406629B2, “Solid forms comprising 4-amino-2-(2,6-dioxopiperidine-3-yl)isoindoline-1,3-dione and a coformer, compositions and methods of use thereof” (Celgene Corporation, priority 2013, dated 2022).

Molecules are shown by their SMILES. Values after ≈ are worked out from the molar mass of the structure shown. Read-outs that look alike come from different tables or passages of the source.

The nature of data set [1]: Slurry of Form B of pomalidomide in EtOH, 0.1 N HCl, or water (solid form conversion). The class given is physicochemical. Conditions: slurring in EtOH, 0.1 N HCl, or water for 3 days. The source says:
In one embodiment, without being limited by particular theory, Form B is a metastable form of pomalidomide.

Data set [2] is described as follows: Solubility of pomalidomide in various solvents at ambient temperature (visual inspection, solvent aliquot addition). The data set is classed as physicochemical. As for the experimental part: Solubility was estimated by treating a weighed sample of pomalidomide with measured aliquots of the test solvent at ambient temperature, with shaking and/or sonication between aliquots. Dissolution was determined by visual inspection. Solubility numbers were calculated by […]. The actual solubilities may be greater than the numbers calculated because of the use of solvent aliquots that were too large or because of slow dissolution rates. […] The solubility number is expressed as “greater than” if dissolution occurred on addition of the first solvent aliquot.

Take `Nc1cccc2c1C(=O)N(C1CCC(=O)NC1=O)C2=O` (stereo not drawn) [Form B of pomalidomide, 4-amino-2-(2,6-dioxopiperidine-3-yl)isoindoline-1,3-dione]: in data set [1], the “Solid form stability on slurrying” value is “converts to Form A of pomalidomide”.
What is called solubility is the concentration that dissolves in the medium under given conditions. In the case of `Nc1cccc2c1C(=O)N(C1CCC(=O)NC1=O)C2=O` (stereo not drawn) [Pomalidomide, 4-amino-2-(2,6-dioxopiperidine-3-yl)isoindoline-1,3-dione], the “solubility” value in data set [2] (Acetone) was 900 µg/mL (≈ 3.29 mM); in data set [2] (DMF:acetone (1:2)), 6000 µg/mL (≈ 22 mM); in data set [2] (Hexafluoroisopropanol), 2300 µg/mL (≈ 8.42 mM); in data set [2] (THF:water (95:5)) it was 3500 µg/mL (≈ 12.8 mM); in data set [2] (organic solvent or mixture, thermodynamic from solid, 2,2,2-trifluoroethanol, read-out: Solubility) it was less than 1000 µg/mL; in data set [2] (organic solvent or mixture, thermodynamic from solid, 2-methyltetrahydrofuran, read-out: Solubility), less than 1000 µg/mL. In addition, the solubility was less than 1000 µg/mL in data set [2] (organic solvent or mixture, thermodynamic from solid, Acetonitrile, read-out: Solubility); more than 5000 µg/mL in data set [2] (organic solvent or mixture, thermodynamic from solid, DMF, read-out: Solubility); 4200 µg/mL (≈ 15.4 mM) in data set [2] (organic solvent or mixture, thermodynamic from solid, DMF:methanol (1:1), read-out: Solubility); 2400 µg/mL (≈ 8.78 mM) in data set [2] (organic solvent or mixture, thermodynamic from solid, DMF:methanol (1:2), read-out: Solubility); less than 1000 µg/mL in data set [2] (organic solvent or mixture, thermodynamic from solid, Dichloromethane, read-out: Solubility); less than 1000 µg/mL in data set [2] (organic solvent or mixture, thermodynamic from solid, Methanol, read-out: Solubility). The solubility is less than 1000 µg/mL in data set [2] (organic solvent or mixture, thermodynamic from solid, acetone:water (95:5), read-out: Solubility) and 1100 µg/mL (≈ 4.03 mM) in data set [2] (tetrahydrofuran (THF)).
